Common to all, as to format: biochemical
Assay [1] addresses T1, Recombinant Csk (Homo sapiens, UniProt P41240).
T1 construct: GST ('glutathione-5-transferase' [sic]); made in house; host or cells: E. coli (pGEX expression vector)
Briefly: Csk tyrosine kinase activity assay with poly E4Y and 32P-ATP. Conditions: NI = no inhibition. The method, then:
(§1) Recombinant human Src was expressed using the baculovirus-insect cell system and purified as published (Budde et al., 1993 and 2000). Recombinant Csk and the FGF receptor (FGFr) were expressed as […] fusion proteins using the pGEX expression vector and E. coli, and purified as described (Sun & Budde, 1995).
(§2) The tyrosine kinase activity of Src, Csk and FGFr was determined using poly E4Y and ^32P-ATP. Briefly, enzymes were assayed in a reaction mixture […] consisting of 0.15 M EPPS-NaOH (pH 8.0) with 6 mM MgCl2, 0.2 mM γ^32P-ATP (0.2-0.4 mCi/μmol), 10% glycerol, 0.1% Triton X-100, and poly E4Y. Poly E4Y is a synthetic peptide whose phosphorylation is measured in this assay by the addition of the radioactively labeled phosphate from the ATP (Budde et al., 1995). […] When ATP was varied (0, 50, 100 and 250 μM), poly E4Y was kept constant at 150 μg/ml.

Assay [2] concerns the target T2, Recombinant human Src (Homo sapiens, UniProt P12931).
T2 construct: made in house; host or cells: baculovirus-insect cell system
Briefly: Src tyrosine kinase activity assay with poly E4Y and 32P-ATP. Particulars: poly E4Y, 32P-ATP; NI = no inhibition; read-out: IC50 Value Src. The method in brief: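 Src expressed in baculovirus-insect cells; Csk and FGFr expressed as GST fusions in E. coli. Kinase activity measured as 32P transfer from γ32P-ATP (0.2 mM, 0.2-0.4 mCi/μmol) to poly E4Y in 0.15 M EPPS-NaOH pH 8.0, 6 mM MgCl2, 10% glycerol, 0.1% Triton X-100; in ATP-variation runs (0-250 μM), poly E4Y fixed at 150 μg/ml.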

The target in assay [3] is T3, FGF receptor (FGFr).
T3 construct: fused on or other part: glutathione-S-transferase (GST) from the pGEX vector
Briefly: FGFr tyrosine kinase activity assay with poly E4Y and 32P-ATP. Conditions: NI = no inhibition. As to the method: as §1, §2

The values that follow come from patent US20060004002A1 (priority 2004, published 2006).

A word on the IC50: it is the concentration needed to halve the response being measured.

T2 sequence (P12931 whole entry): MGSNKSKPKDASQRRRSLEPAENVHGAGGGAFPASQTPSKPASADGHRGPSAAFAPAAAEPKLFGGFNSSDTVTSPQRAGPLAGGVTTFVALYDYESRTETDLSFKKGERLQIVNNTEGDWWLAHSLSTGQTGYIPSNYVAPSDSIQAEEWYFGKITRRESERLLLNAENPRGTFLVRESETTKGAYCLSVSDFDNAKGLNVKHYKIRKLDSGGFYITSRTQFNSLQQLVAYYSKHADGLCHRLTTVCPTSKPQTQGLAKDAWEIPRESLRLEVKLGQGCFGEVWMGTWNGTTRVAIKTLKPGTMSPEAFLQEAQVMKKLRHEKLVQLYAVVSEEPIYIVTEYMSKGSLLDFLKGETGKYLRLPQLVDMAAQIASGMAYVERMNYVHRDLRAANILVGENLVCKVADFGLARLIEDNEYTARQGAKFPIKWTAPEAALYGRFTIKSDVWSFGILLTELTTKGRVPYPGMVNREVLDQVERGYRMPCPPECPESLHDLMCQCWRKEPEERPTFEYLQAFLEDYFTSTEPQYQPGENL
T1 sequence (P41240 whole entry, species assumed): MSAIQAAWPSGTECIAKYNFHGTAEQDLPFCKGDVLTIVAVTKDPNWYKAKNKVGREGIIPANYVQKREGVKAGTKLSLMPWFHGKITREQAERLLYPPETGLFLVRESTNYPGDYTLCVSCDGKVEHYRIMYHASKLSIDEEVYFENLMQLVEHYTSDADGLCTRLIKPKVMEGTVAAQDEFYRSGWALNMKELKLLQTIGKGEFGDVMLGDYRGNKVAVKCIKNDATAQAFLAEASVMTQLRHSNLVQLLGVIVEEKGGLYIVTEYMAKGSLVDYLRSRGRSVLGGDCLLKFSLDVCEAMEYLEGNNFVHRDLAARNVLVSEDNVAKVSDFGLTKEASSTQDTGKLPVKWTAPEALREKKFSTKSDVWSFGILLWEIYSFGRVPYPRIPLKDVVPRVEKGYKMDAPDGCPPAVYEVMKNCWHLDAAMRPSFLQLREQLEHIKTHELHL

With `CCOc1ccccc1-c1sc2c(NN=Cc3ccc(O)c(OC)c3)ncnc2c1O` [Compound 88, 4-Hydroxy-3-methoxybenzaldehyde (6-(2-ethoxyphenyl)-7-hydroxythieno[3,2-d]pyrimidin-4-yl)hydrazone], the figures for the IC50 in assay [1], in assay [2] and in assay [3] were 3.4 µM, 0.0025 µM and 2.3 µM, respectively.
For `CCOc1ccccc1-c1sc2c(NN=Cc3ccc(O)c(Cl)c3)ncnc2c1O` [Compound 92, 3-Chloro-4-hydroxybenzaldehyde (6-(2-ethoxyphenyl)-7-hydroxythieno[3,2-d]pyrimidin-4-yl)hydrazone] the same measures were 11.3 µM, 0.0042 µM and 27.7 µM.
Turning to `COc1ccc(C=NNc2ncnc3c(C)c(-c4ccc(CN5CCOCC5)cc4)sc23)cc1O` [Compound 46, 3-Hydroxy-4-methoxybenzaldehyde (6-(4-(morpholin-4-yl)methyl-phenyl)-7-methylthieno[3,2-d]pyrimidin-4-yl)hydrazone], the half-maximal inhibitory concentration (IC50) in assay [1] amounted to 102 µM; in assay [2], 0.0055 µM; in assay [3] it was 102 µM.
As to `CCCOc1ccccc1-c1sc2c(NN=Cc3cccs3)ncnc2c1O` [Compound 85], the half-inhibitory concentration (IC50) in assay [1] worked out at 17.7 µM; in assay [2] it was 0.0048 µM; in assay [3], 7.5 µM.
Taken in the same sequence, the figures for `CCOc1ccccc1-c1sc2c(NN=Cc3cc(Br)c(O)c(OC)c3)ncnc2c1O` [Compound 89, 3-Bromo-4-hydroxy-5-methoxybenzaldehyde (6-(2-ethoxyphenyl)-7-hydroxythieno[3,2-d]pyrimidin-4-yl)hydrazone] were 2.9 µM, 0.0025 µM and 1.9 µM.
Consider `CCOc1cc(F)ccc1-c1sc2c(NN=Cc3ccc(OC)c(O)c3)ncnc2c1CO` [Compound 60, 3-Hydroxy-4-methoxybenzaldehyde (6-(2-ethoxy-4-fluorophenyl)-7-hydroxymethylthieno[3,2-d]pyrimidin-4-yl)hydrazone], for which the IC50 in assay [1] was 210 µM; in assay [2], 0.036 µM.
With `CCOc1ccccc1-c1sc2c(NN=Cc3cc(O)c(OC)c(OC)c3)ncnc2c1O` [Compound 100, 3,4-Dimethoxy-5-hydroxybenzaldehyde (6-(2-ethoxyphenyl)-7-hydroxythieno[3,2-d]pyrimidin-4-yl)hydrazone], the values for the IC50 in assay [1] and in assay [2] were 2.1 µM and 0.0013 µM, respectively.
For `CCOc1ccccc1-c1sc2c(NN=Cc3ccco3)ncnc2c1O` [Compound 121, 2-Furancarboxaldehyde (6-(2-ethoxyphenyl)-7-hydroxythieno[3,2-d]pyrimidin-4-yl)hydrazone] the same measures were 5 µM and 0.006 µM.
In the case of `COc1ccc(C=NNc2ncnc3c(C)c(-c4ccccc4O)sc23)cc1O` [Compound 84, 3-Hydroxy-4-methoxybenzaldehyde (6-(2-hydroxyphenyl)-7-methylthieno[3,2-d]pyrimidin-4-yl)hydrazone], the half-inhibitory concentration (IC50) in assay [1] worked out at 500 µM; in assay [2], 0.18 µM.
Take `CCOc1ccccc1-c1sc2c(NN=Cc3cccc(O)c3)ncnc2c1C#N` [compound 103]: the 50% inhibitory concentration (IC50) in assay [1] was determined as 13 µM; in assay [2], 0.0015 µM.
Taken in the same sequence, the figures for `COc1ccc(C=NNc2ncnc3c(C)c(-c4ccc(NC(C)=O)cc4)sc23)cc1O` [Compound 43, 3-Hydroxy-4-methoxybenzaldehyde (6-(4-N-acetylaminophenyl)-7-methythieno[3,2-d]pyrimidin-4-yl)hydrazone] were 112 µM and 0.012 µM.
